target: T1, human kinase Mps-1 (Homo sapiens, UniProt P33981); assay: Mps-1 kinase assay (HTRF); type: biochemical; conditions: lowATP; mean; read-out: Mps1 lowATP mean IC50
T1 construct: N-terminally GST-tagged human full length recombinant Mps-1 kinase; purchased Invitrogen, Karslruhe, Germany PV4071
T1 sequence (P33981 1-857): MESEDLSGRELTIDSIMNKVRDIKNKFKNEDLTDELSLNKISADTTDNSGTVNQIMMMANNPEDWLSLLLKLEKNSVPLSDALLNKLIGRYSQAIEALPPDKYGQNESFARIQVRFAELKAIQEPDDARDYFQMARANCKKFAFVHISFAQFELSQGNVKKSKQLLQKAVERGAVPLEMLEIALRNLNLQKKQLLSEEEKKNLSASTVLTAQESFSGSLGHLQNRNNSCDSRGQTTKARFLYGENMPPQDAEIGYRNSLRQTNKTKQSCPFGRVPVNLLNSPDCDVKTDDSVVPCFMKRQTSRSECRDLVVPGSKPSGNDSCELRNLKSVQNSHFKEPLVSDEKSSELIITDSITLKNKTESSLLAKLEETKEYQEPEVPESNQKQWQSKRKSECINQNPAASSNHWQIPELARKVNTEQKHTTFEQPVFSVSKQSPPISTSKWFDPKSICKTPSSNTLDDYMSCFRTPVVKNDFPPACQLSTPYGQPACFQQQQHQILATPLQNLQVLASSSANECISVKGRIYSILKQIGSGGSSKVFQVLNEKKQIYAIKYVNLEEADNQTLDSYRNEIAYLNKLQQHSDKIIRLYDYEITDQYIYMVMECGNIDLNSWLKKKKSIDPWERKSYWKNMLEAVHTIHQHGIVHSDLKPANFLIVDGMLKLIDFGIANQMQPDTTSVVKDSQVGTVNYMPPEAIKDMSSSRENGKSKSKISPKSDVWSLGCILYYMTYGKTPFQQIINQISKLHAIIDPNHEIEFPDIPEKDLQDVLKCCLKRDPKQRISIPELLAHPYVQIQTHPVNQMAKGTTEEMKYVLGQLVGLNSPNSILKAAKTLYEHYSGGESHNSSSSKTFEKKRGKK
Method in brief: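 HTRF readout: EDTA-stopped reactions incubated 1 h with europium anti-phospho(Ser/Thr) antibody and streptavidin-XLent, emission ratio 665/620 nm after 350 nm excitation. Kinase step: compound pre-bound 15 min to ~1 nM GST-Mps-1, then 60 min at 22 °C with ATP and biotin-peptide substrate; inhibition scaled between no-inhibitor (0%) and no-enzyme (100%) controls.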

| Compound | IC50 |
| --- | --- |
| CC(C)CNc1nc2ccccc2n2c(-c3ccc(C(=O)NCCc4ccncc4)cc3)cnc12 [Example 3-16, 4-{4-[(2-methylpropyl)amino]imidazo[1,2-a]quinoxalin-1-yl}-N-[2-(pyridin-4-yl)ethyl]benzamide] | 5870 nM |
| CC(C)CNc1nc2ccccc2n2c(-c3ccc(C(=O)NCCC(N)=O)cc3)cnc12 [Example 3-17, N-(3-amino-3-oxopropyl)-4-{4-[(2-methylpropyl)amino]imidazo[1,2-a]quinoxalin-1-yl}benzamide] | 7720 nM |
| CC(C)CNc1nc2ccccc2n2c(-c3ccc(C(=O)NCCN4CCNC4=O)cc3)cnc12 [Example 3-18, 4-{4-[(2-methylpropyl)amino]imidazo[1,2-a]quinoxalin-1-yl}-N-[2-(2-oxoimidazolidin-1-yl)ethyl]benzamide] | 11900 nM |
| CNC(=O)CNC(=O)c1ccc(-c2cnc3c(NCC(C)C)nc4ccccc4n23)cc1 [Example 3-19, N-[2-(methylamino)-2-oxoethyl]-4-{4-[(2-methylpropyl)amino]imidazo[1,2-a]quinoxalin-1-yl}benzamide] | 11600 nM |
| CC(C)CNc1nc2ccccc2n2c(-c3ccc(C(=O)NCCc4cccnc4)cc3)cnc12 [Example 3-20, 4-{4-[(2-methylpropyl)amino]imidazo[1,2-a]quinoxalin-1-yl}-N-[2-(pyridin-3-yl)ethyl]benzamide] | 4480 nM |
| CC(C)CNc1nc2ccccc2n2c(-c3ccc(C(=O)NC4CC4F)cc3)cnc12 (centres unmarked) [Example 3-21, N-(2-fluorocyclopropyl)-4-{4-[(2-methylpropyl)amino]imidazo[1,2-a]quinoxalin-1-yl}benzamide] | 7.75 nM |
| CC(C)CNc1nc2ccccc2n2c(-c3ccc(C(=O)NC4(C#N)CC4)cc3)cnc12 [Example 3-22, N-(1-cyanocyclopropyl)-4-{4-[(2-methylpropyl)amino]imidazo[1,2-a]quinoxalin-1-yl}benzamide] | 214 nM |
| CC(C)CNc1nc2ccccc2n2c(-c3ccc(C(=O)Nc4ccn(C)n4)cc3)cnc12 [Example 3-23, 4-{4-[(2-methylpropyl)amino]imidazo[1,2-a]quinoxalin-1-yl}-N-(1-methyl-1H-pyrazol-3-yl)benzamide] | 997 nM |
| CCn1nccc1C(=O)Nc1cccc(NC(=O)c2ccc(-c3cnc4c(NCC(C)C)nc5ccccc5n34)cc2)c1 [Example 3-24, 1-ethyl-N-{3-[(4-{4-[(2-methylpropyl)amino]imidazo[1,2-a]quinoxalin-1-yl}benzoyl)amino]phenyl}-1H-pyrazole-5-carboxamide] | 3610 nM |
| CC(C)CNc1nc2ccccc2n2c(-c3ccc(C(=O)NC4(c5ccccn5)CC4)cc3)cnc12 [Example 3-25, 4-{4-[(2-methylpropyl)amino]imidazo[1,2-a]quinoxalin-1-yl}-N-[1-(pyridin-2-yl)cyclopropyl]benzamide] | 1420 nM |
| CC(C)CNc1nc2ccccc2n2c(-c3ccc(C(=O)NCCS(N)(=O)=O)cc3)cnc12 [Example 3-26, 4-{4-[(2-methylpropyl)amino]imidazo[1,2-a]quinoxalin-1-yl}-N-(2-sulfamoylethyl)benzamide] | 5860 nM |
| CC(C)CNc1nc2ccccc2n2c(-c3ccc(C(=O)Nc4cccc(NC(=O)c5ccncc5)c4)cc3)cnc12 [Example 3-27, N-{3-[(4-{4-[(2-methylpropyl)amino]imidazo[1,2-a]quinoxalin-1-yl}benzoyl)amino]phenyl}pyridine-4-carboxamide] | 349 nM |
| CC(C)CNc1nc2ccccc2n2c(-c3ccc(C(=O)Nc4cccc(NC(=O)c5cccnc5)c4)cc3)cnc12 [Example 3-28, N-{3-[(4-{4-[(2-methylpropyl)amino]imidazo[1,2-a]quinoxalin-1-yl}benzoyl)amino]phenyl}pyridine-3-carboxamide] | 361 nM |
| CC(C)CNc1nc2ccccc2n2c(-c3ccc(C(=O)NC4CC4C)cc3)cnc12 (centres unmarked) [Example 3-29, N-(2-methylcyclopropyl)-4-{4-[(2-methylpropyl)amino]imidazo[1,2-a]quinoxalin-1-yl}benzamide] | 13.8 nM |
| CC(C)CNc1nc2ccccc2n2c(-c3ccc(C(=O)NC4(CO)CC4)cc3)cnc12 [Example 3-30, N-[1-(hydroxymethyl)cyclopropyl]-4-{4-[(2-methylpropyl)amino]imidazo[1,2-a]quinoxalin-1-yl}benzamide] | 275 nM |
| CC(C)CNc1nc2ccccc2n2c(-c3ccc(C(=O)Nc4ccc(CN5CCN(C)CC5)c(C(F)(F)F)c4)cc3)cnc12 [Example 3-31, N-{4-[(4-methylpiperazin-1-yl)methyl]-3-(trifluoromethyl)phenyl}-4-{4-[(2-methylpropyl)amino]imidazo[1,2-a]quinoxalin-1-yl}benzamide] | 4570 nM |
| CC(C)CNc1nc2ccccc2n2c(-c3ccc(C(=O)NC4(C)CC4)cc3)cnc12 [Example 3-32, N-(1-methylcyclopropyl)-4-{4-[(2-methylpropyl)amino]imidazo[1,2-a]quinoxalin-1-yl}benzamide] | 158 nM |
